Source: PubChem BioAssay (NCI)
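Assay format: 96-well plates, 48-hour exposure. TGI is the concentration that stops growth completely.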

Columns and labels:
Experiment in all cases: NCI anticancer screen, dose series, 48 h
KM12 colon = tested on: KM12 colon
OVCAR-5 ovarian = tested on: OVCAR-5 ovarian
SK-MEL-5 melanoma = tested on: SK-MEL-5 melanoma
SF-539 CNS = tested on: SF-539 CNS
COLO 205 colon = tested on: COLO 205 colon
M14 melanoma = tested on: M14 melanoma
SW-620 colon = tested on: SW-620 colon
DU-145 prostate = tested on: DU-145 prostate
OVCAR-8 ovarian = tested on: OVCAR-8 ovarian
NCI-H23 lung = tested on: NCI-H23 lung
UACC-62 melanoma = tested on: UACC-62 melanoma
HOP-62 NSCLC = tested on: HOP-62 NSCLC
MCF7 breast = tested on: MCF7 breast
CCRF-CEM leukemia = tested on: CCRF-CEM leukemia
SNB-75 CNS = tested on: SNB-75 CNS
NCI/ADR-RES ovarian = tested on: NCI/ADR-RES ovarian
UO-31 renal = tested on: UO-31 renal
U251 CNS = tested on: U251 CNS
SNB-19 CNS = tested on: SNB-19 CNS
UACC-257 melanoma = tested on: UACC-257 melanoma
OVCAR-4 ovarian = tested on: OVCAR-4 ovarian
RPMI-8226 leukemia = tested on: RPMI-8226 leukemia
MALME-3M melanoma = tested on: MALME-3M melanoma
OVCAR-3 ovarian = tested on: OVCAR-3 ovarian
T-47D breast = tested on: T-47D breast
HCT-15 colon = tested on: HCT-15 colon
786-0 renal = tested on: 786-0 renal
HT29 colon = tested on: HT29 colon
HL-60(TB) leukemia = tested on: HL-60(TB) leukemia
SF-295 CNS = tested on: SF-295 CNS
PC-3 prostate = tested on: PC-3 prostate
RXF 393 renal = tested on: RXF 393 renal
TK-10 renal = tested on: TK-10 renal
SK-OV-3 ovarian = tested on: SK-OV-3 ovarian
IGROV1 ovarian = tested on: IGROV1 ovarian
SN12C renal = tested on: SN12C renal
HS 578T breast = tested on: HS 578T breast
MDA-MB-435 = tested on: MDA-MB-435
ACHN renal = tested on: ACHN renal
EKVX NSCLC = tested on: EKVX NSCLC
CAKI-1 renal = tested on: CAKI-1 renal
SR leukemia = tested on: SR leukemia
A498 renal = tested on: A498 renal
K-562 leukemia = tested on: K-562 leukemia
A549 NSCLC = tested on: A549 NSCLC
SF-268 CNS = tested on: SF-268 CNS
MOLT-4 leukemia = tested on: MOLT-4 leukemia
HCC-2998 colon = tested on: HCC-2998 colon
BT-549 breast = tested on: BT-549 breast
LOX IMVI melanoma = tested on: LOX IMVI melanoma
HCT-116 colon = tested on: HCT-116 colon
SK-MEL-2 melanoma = tested on: SK-MEL-2 melanoma
HOP-92 NSCLC = tested on: HOP-92 NSCLC
MDA-MB-231 breast = tested on: MDA-MB-231 breast
SK-MEL-28 melanoma = tested on: SK-MEL-28 melanoma
MDA-N = tested on: MDA-N
NCI-H226 lung = tested on: NCI-H226 lung
NCI-H522 lung = tested on: NCI-H522 lung

COc1cc(/C=C2\C[C@H]3[C@@H]4CC=C5C=C(N6CCCC6)CC[C@]5(C)[C@H]4CC[C@]3(C)C2=O)cc(OC)c1OC
TGI (KM12 colon): 4.37 µM
TGI (OVCAR-5 ovarian): 30.8 µM
TGI (SK-MEL-5 melanoma): > 27.9 µM
TGI (SF-539 CNS): 12.5 µM
TGI (COLO 205 colon): 10.7 µM
TGI (M14 melanoma): 5.37 µM
TGI (SW-620 colon): > 41.6 µM
TGI (DU-145 prostate): 12.8 µM
TGI (OVCAR-8 ovarian): 6.1 µM
TGI (NCI-H23 lung): 7.96 µM
TGI (UACC-62 melanoma): 5.46 µM
TGI (HOP-62 NSCLC): 7.17 µM
TGI (MCF7 breast): 11.3 µM
TGI (CCRF-CEM leukemia): > 100 µM
TGI (SNB-75 CNS): 15.9 µM
TGI (NCI/ADR-RES ovarian): > 23.3 µM
TGI (UO-31 renal): 8.48 µM
TGI (U251 CNS): 4.7 µM
TGI (SNB-19 CNS): 18.4 µM
TGI (UACC-257 melanoma): 9.48 µM
TGI (OVCAR-4 ovarian): 22.5 µM
TGI (RPMI-8226 leukemia): > 28 µM
TGI (MALME-3M melanoma): 5.61 µM
TGI (OVCAR-3 ovarian): 4.07 µM
TGI (T-47D breast): 11.1 µM
TGI (HCT-15 colon): 6.53 µM
TGI (786-0 renal): > 24.2 µM
TGI (HT29 colon): 8.67 µM
TGI (HL-60(TB) leukemia): 17.8 µM
TGI (SF-295 CNS): 7.04 µM
TGI (PC-3 prostate): 15.2 µM
TGI (RXF 393 renal): 4.04 µM
TGI (TK-10 renal): 21.4 µM
TGI (SK-OV-3 ovarian): 22.1 µM
TGI (IGROV1 ovarian): 3.83 µM
TGI (SN12C renal): 12.1 µM
TGI (HS 578T breast): 6.21 µM
TGI (MDA-MB-435): 5.83 µM
TGI (ACHN renal): 5.46 µM
TGI (EKVX NSCLC): 16.5 µM
TGI (CAKI-1 renal): 7.61 µM
TGI (SR leukemia): > 100 µM
TGI (A498 renal): 21 µM
TGI (K-562 leukemia): > 100 µM
TGI (A549 NSCLC): > 51.7 µM
TGI (SF-268 CNS): 5.05 µM
TGI (MOLT-4 leukemia): > 28 µM
TGI (HCC-2998 colon): 3.57 µM
TGI (BT-549 breast): 5.82 µM
TGI (LOX IMVI melanoma): 2.87 µM
TGI (HCT-116 colon): 3.93 µM
TGI (SK-MEL-2 melanoma): 13 µM
TGI (HOP-92 NSCLC): 5.67 µM
TGI (MDA-MB-231 breast): 6.62 µM
TGI (SK-MEL-28 melanoma): 19.5 µM
TGI (MDA-N): 4.2 µM
TGI (NCI-H226 lung): 34.3 µM
TGI (NCI-H522 lung): 2.88 µM
